Test [1] is filed under the species Rattus norvegicus. The test can be described thus: (§1) Displacement of [3H]glutamic acid from rat brain unspecified glutamate receptor by competitive binding assay. On the technique in general: Loss of bound radioactivity is the signal in a displacement assay; it reports binding, not function.
For test [2], the species on record is Rattus norvegicus. Kind of test: Displacement of [3H]AMPA from rat brain unspecified glutamate receptor by competitive binding assay.
For test [3], the species on record is Rattus norvegicus. The test can be described thus: Displacement of [3H]kainic acid from rat brain unspecified glutamate receptor by competitive binding assay.
For test [4], the species on record is Rattus norvegicus. Kind of test: Displacement of [3H]NMDA from rat brain unspecified glutamate receptor by competitive binding assay.
Test [5] can be described thus: as §1.
Test [6] deals with Aplysia californica. Kind of test: Agonist activity at glutamate receptor in Aplysia californica buccal S cluster neurons assessed as receptor non-desensitization at 30 mV holding potential at 1 mM by patch clamp technique. Background: In patch-clamp work, channel activity is measured electrically.
Test [7] has as its system Aplysia californica. The test can be described thus: Agonist activity at glutamate receptor in Aplysia californica buccal S cluster neurons assessed as membrane depolarization at 1 mM by patch clamp technique.

Three molecules from ChEMBL document CHEMBL2346556, “Synthesis, receptor binding and activity of iso and azakainoids” (Bioorg Med Chem Lett, 2013) can be followed below.

Calls of active or inactive are those of the source. The calls are words filed in the database; no cut-off is given here.

On to `O=C(O)C[C@H]1CCN[C@@H]1C(=O)O` (relative stereo), for which the outcome in the test filed under Rattus norvegicus [1], in the test filed under Rattus norvegicus [2], in the test listed under Rattus norvegicus [3] and in the test filed under Rattus norvegicus [4] was inactive.
As a reminder, the EC50 is the concentration giving half of the maximal effect. Turning to `O=C(O)C[C@H]1CNN[C@@H]1C(=O)O` (relative stereo), the EC50 in test [5] came to 12 µM. Moreover, the result in the test listed under Rattus norvegicus [2], in the test listed under Rattus norvegicus [3] and in the test filed under Rattus norvegicus [4] was inactive. The outcome with Aplysia californica [6] and in the test on Aplysia californica [7] was Active.
As to `O=C(O)C[C@H]1CNC[C@@H]1C(=O)O` (relative stereo), the outcome in the test listed under Rattus norvegicus [1], in the test listed under Rattus norvegicus [2], in the test filed under Rattus norvegicus [3] and in the test listed under Rattus norvegicus [4] was inactive.
